Starred links: 1 amine or outer side, 2 acyl side, 3 side chain; linkers in the order of their positions; H or OH if unused. Positions of bridges follow the written chain, without caps; N, C: chain ends. Non-standard residues stand in square brackets, D forms with d. Residues, ends and D or L forms follow the SMILES beside them. Chains are numbered I, II in the order given. Actinocin(9to1) = Cc1c2oc3c(C)ccc(C(=O)[*:1])c3nc-2c(C(=O)[*:2])c(N)c1=O; NMeV = CN[C@H](C(=O)O)C(C)C; Sar = CNCC(=O)O
Key:
[1] = Selectivity index, ratio of IC50 for cytotoxicity against human HDF cells to IC50 for anticancer activity against human SK-OV-3 cells; assay type: cell-based; conditions: HDF cells versus SK-OV-3 cells, read-out: Ratio IC50
[2] = Selectivity index, ratio of IC50 for cytotoxicity against human HDF cells to IC50 for anticancer activity against human PC-3 cells; assay type: toxicity, cell-based; conditions: HDF cells versus PC-3 cells, read-out: Ratio IC50
[3] = test system: SK-OV-3; assay: Anticancer activity against human SK-OV-3 cells assessed as cell growth inhibition incubated for 72 hrs by SRB assay; assay type: functional, cell-based
[4] = Cytotoxicity against human HDF cells assessed as cell growth inhibition incubated for 72 hrs by SRB assay; assay type: toxicity, cell-based; conditions: HDF cells (normal human dermal fibroblasts, NHDF)
[5] = Selectivity index, ratio of IC50 for cytotoxicity against human HDF cells to IC50 for anticancer activity against human SK-BR-3 cells; assay type: toxicity, cell-based; conditions: HDF cells versus SK-BR-3 cells, read-out: Ratio IC50
[6] = test system: PC-3; assay: Anticancer activity against human PC-3 cells assessed as cell growth inhibition incubated for 72 hrs by SRB assay; assay type: functional, cell-based
[7] = test system: SK-BR-3; assay: Anticancer activity against human SK-BR-3 cells assessed as cell growth inhibition incubated for 72 hrs by SRB assay; assay type: functional, cell-based

| Structure (SMILES) | selectivity ratio [1] | selectivity ratio [2] | IC50 ([3]; Homo sapiens, SK-OV-3, 72 h) [nM] | IC50 at 72 h [4] [nM] | selectivity ratio [5] | IC50 ([6]; Homo sapiens, PC-3, 72 h) [nM] | IC50 ([7]; Homo sapiens, SK-BR-3, 72 h) [nM] | IC50 ([3]; sk-ov-3) [nM] | IC50 ([6]; pc-3) [nM] | IC50 ([7]; sk-br-3) [nM] |
| --- | --- | --- | --- | --- | --- | --- | --- | --- | --- | --- |
| CO[C@H]1/C=C\C=C(/C)C(=O)NC2=CC(=O)C(NCc3cn(Cc4ccc([N+](=O)[O-])cc4)nn3)=C(C[C@@H](C)C[C@H](OC)[C@H](O)[C@@H](C)/C=C(\C)[C@@H]1OC(N)=O)C2=O | 1.05 | 1.28 | 740 | 780 | 1.05 | 690 | 740 | – | – | – |
| COC(=O)C[C@H]1O[C@@H](n2cc(CNC3=C4C[C@@H](C)C[C@H](OC)[C@H](O)[C@@H](C)/C=C(\C)[C@H](OC(N)=O)[C@@H](OC)/C=C\C=C(/C)C(=O)NC(=CC3=O)C4=O)nn2)[C@H](O)[C@@H](O)[C@@H]1O | 1.49 | 1.65 | 1470 | 2190 | 1.55 | 1330 | 1410 | – | – | – |
| C#CCNC1=C2C[C@@H](C)C[C@H](OC)[C@H](O)[C@@H](C)/C=C(\C)[C@H](OC(N)=O)[C@@H](OC)/C=C\C=C(/C)C(=O)NC(=CC1=O)C2=O | 1.74 | 1.8 | 4230 | 7360 | 1.84 | 4090 | 4010 | – | – | – |
| CO[C@H]1/C=C\C=C(/C)C(=O)NC2=CC(=O)C(NCc3cn(Cc4ccccc4)nn3)=C(C[C@@H](C)C[C@H](OC)[C@H](O)[C@@H](C)/C=C(\C)[C@@H]1OC(N)=O)C2=O | 2.03 | 2.46 | 630 | 1280 | 2.56 | 520 | 500 | – | – | – |
| CO[C@H]1/C=C\C=C(/C)C(=O)NC2=CC(=O)C(NCCn3cc(C(=O)O)nn3)=C(C[C@@H](C)C[C@H](OC)[C@H](O)[C@@H](C)/C=C(\C)[C@@H]1OC(N)=O)C2=O | 2.06 | 2.06 | 870 | 1790 | 2.21 | 870 | 810 | – | – | – |
| CO[C@H]1/C=C\C=C(/C)C(=O)NC2=CC(=O)C(NCc3cn([C@@H]4O[C@H](CO)[C@@H](O)[C@H](O)[C@H]4NC(C)=O)nn3)=C(C[C@@H](C)C[C@H](OC)[C@H](O)[C@@H](C)/C=C(\C)[C@@H]1OC(N)=O)C2=O | 1.15 | 1.16 | 1860 | 2130 | 1.85 | 1840 | 1750 | – | – | – |
| CO[C@H]1/C=C\C=C(/C)C(=O)NC2=CC(=O)C(NCc3cn(Cc4cccc(C#N)c4)nn3)=C(C[C@@H](C)C[C@H](OC)[C@H](O)[C@@H](C)/C=C(\C)[C@@H]1OC(N)=O)C2=O | 1.62 | 1.65 | 4600 | 7440 | 1.65 | 4510 | 4510 | – | – | – |
| CO[C@H]1/C=C\C=C(/C)C(=O)NC2=CC(=O)C(NCc3cn(CC4CCCCC4)nn3)=C(C[C@@H](C)C[C@H](OC)[C@H](O)[C@@H](C)/C=C(\C)[C@@H]1OC(N)=O)C2=O | 1.48 | 1.53 | 1410 | 2090 | 1.53 | 1370 | 1370 | – | – | – |
| CO[C@H]1/C=C\C=C(/C)C(=O)NC2=CC(=O)C(NCCn3cc(CC(=O)O)nn3)=C(C[C@@H](C)C[C@H](OC)[C@H](O)[C@@H](C)/C=C(\C)[C@@H]1OC(N)=O)C2=O | 1.45 | 1.83 | 2680 | 3880 | 1.37 | 2120 | 2840 | – | – | – |
| Cc1c2oc3c(C)ccc(C(=O)N[C@@H]4C(=O)N[C@H](C(C)C)C(=O)N5CCC[C@H]5C(=O)N(C)CC(=O)N(C)[C@@H](C(C)C)C(=O)O[C@@H]4C)c3nc-2c(C(=O)N[C@@H]2C(=O)N[C@H](C(C)C)C(=O)N3CCC[C@H]3C(=O)N(C)CC(=O)N(C)[C@@H](C(C)C)C(=O)O[C@@H]2C)c(N)c1=O [DACTINOMYCIN] (I: T[dV]P[Sar][NMeV] / II: T[dV]P[Sar][NMeV]; ester I:1-I:C, II:1-II:C; linker I:N-II:N via Actinocin(9to1)) | 2.63 | 2.3 | 620 | 1630 | 2.4 | 710 | 680 | – | – | – |
| COC1=C2C[C@@H](C)C[C@H](OC)[C@H](O)[C@@H](C)/C=C(\C)[C@H](OC(N)=O)[C@@H](OC)/C=C\C=C(/C)C(=O)NC(=CC1=O)C2=O [GELDANAMYCIN] | – | – | – | 1050 | – | – | – | 640 | 600 | 580 |
| CO[C@H]1/C=C\C=C(/C)C(=O)NC2=CC(=O)C(NCc3cn([C@@H]4O[C@H](COC(C)=O)[C@H](OC(C)=O)[C@H](OC(C)=O)[C@H]4OC(C)=O)nn3)=C(C[C@@H](C)C[C@H](OC)[C@H](O)[C@@H](C)/C=C(\C)[C@@H]1OC(N)=O)C2=O | 1.24 | 1.07 | 780 | 970 | 1.29 | 910 | 770 | – | – | – |
| CO[C@H]1/C=C\C=C(/C)C(=O)NC2=CC(=O)C(NCc3cn(Cc4ccsc4Br)nn3)=C(C[C@@H](C)C[C@H](OC)[C@H](O)[C@@H](C)/C=C(\C)[C@@H]1OC(N)=O)C2=O | 1.7 | 1.53 | 1020 | 1730 | 1.65 | 1130 | 1050 | – | – | – |
| CO[C@H]1/C=C\C=C(/C)C(=O)NC2=CC(=O)C(NCc3cn([C@]4(C#N)O[C@H](COC(C)=O)[C@H](OC(C)=O)[C@H](OC(C)=O)[C@H]4OC(C)=O)nn3)=C(C[C@@H](C)C[C@H](OC)[C@H](O)[C@@H](C)/C=C(\C)[C@@H]1OC(N)=O)C2=O | 1.33 | 1.64 | 940 | 1250 | 1.37 | 760 | 910 | – | – | – |
| CO[C@H]1/C=C\C=C(/C)C(=O)NC2=CC(=O)C(NCc3cn(Cc4ccc(C#N)cc4)nn3)=C(C[C@@H](C)C[C@H](OC)[C@H](O)[C@@H](C)/C=C(\C)[C@@H]1OC(N)=O)C2=O | 1.89 | 2.09 | 940 | 1780 | 1.91 | 850 | 930 | – | – | – |
| CO[C@H]1/C=C\C=C(/C)C(=O)NC2=CC(=O)C(NCc3cn(C4CCCCCC4)nn3)=C(C[C@@H](C)C[C@H](OC)[C@H](O)[C@@H](C)/C=C(\C)[C@@H]1OC(N)=O)C2=O | 1.52 | 1.62 | 1120 | 1700 | 1.65 | 1050 | 1030 | – | – | – |
| CO[C@H]1/C=C\C=C(/C)C(=O)NC2=CC(=O)C(NCc3cn(CC4CCOCC4)nn3)=C(C[C@@H](C)C[C@H](OC)[C@H](O)[C@@H](C)/C=C(\C)[C@@H]1OC(N)=O)C2=O | 2 | 1.9 | 920 | 1840 | 1.92 | 970 | 960 | – | – | – |
| CO[C@H]1/C=C\C=C(/C)C(=O)NC2=CC(=O)C(NCc3cn(Cc4ccc(Br)cc4)nn3)=C(C[C@@H](C)C[C@H](OC)[C@H](O)[C@@H](C)/C=C(\C)[C@@H]1OC(N)=O)C2=O | 2.41 | 2.1 | 270 | 650 | 1.76 | 310 | 370 | – | – | – |
| CO[C@H]1/C=C\C=C(/C)C(=O)NC2=CC(=O)C(NCc3cn(Cc4ccc(F)cc4)nn3)=C(C[C@@H](C)C[C@H](OC)[C@H](O)[C@@H](C)/C=C(\C)[C@@H]1OC(N)=O)C2=O | 1.11 | 1.07 | 1520 | 1690 | 1.09 | 1580 | 1550 | – | – | – |
| CO[C@H]1/C=C\C=C(/C)C(=O)NC2=CC(=O)C(NCc3cn(CC=C(C)C)nn3)=C(C[C@@H](C)C[C@H](OC)[C@H](O)[C@@H](C)/C=C(\C)[C@@H]1OC(N)=O)C2=O | 1.47 | 1.15 | 2160 | 3180 | 1.57 | 2770 | 2030 | – | – | – |
| CO[C@H]1/C=C\C=C(/C)C(=O)NC2=CC(=O)C(NCc3cn(Cc4ccc([N+](=O)[O-])o4)nn3)=C(C[C@@H](C)C[C@H](OC)[C@H](O)[C@@H](C)/C=C(\C)[C@@H]1OC(N)=O)C2=O | 1.83 | 1.78 | 2090 | 3820 | 1.8 | 2150 | 2120 | – | – | – |
| CO[C@H]1/C=C\C=C(/C)C(=O)NC2=CC(=O)C(NCCn3cc(-c4ccsc4)nn3)=C(C[C@@H](C)C[C@H](OC)[C@H](O)[C@@H](C)/C=C(\C)[C@@H]1OC(N)=O)C2=O | 2.2 | 2.09 | 940 | 2070 | 2.23 | 990 | 930 | – | – | – |
| CO[C@H]1/C=C\C=C(/C)C(=O)NC2=CC(=O)C(NCCN=[N+]=[N-])=C(C[C@@H](C)C[C@H](OC)[C@H](O)[C@@H](C)/C=C(\C)[C@@H]1OC(N)=O)C2=O | 2.17 | 2.26 | 950 | 2060 | 2.19 | 910 | 940 | – | – | – |

Source: ChEMBL document CHEMBL5370558, “Modifications of geldanamycin via CuAAC altering affinity to chaperone protein Hsp90 and cytotoxicity” (Eur J Med Chem, 2023)
